Laboratory results from US20250277187A1, “A METHOD FOR PRODUCING INDUCED STEROIDOGENIC CELLS AND USE THEREOF IN CELL THERAPY” (TECHNISCHE UNIVERSITAET DRESDEN, priority 2021, published 2025).

Tested on: cells infected with the SF1 gene or the SF1+MC2R+MRAP genes
Assay: ACTH stimulation of hiSCs: cortisol and aldosterone secretion
Format: cell-based, human
Details: ACTH 0 nM, 10 nM

With “adrenocorticotropic hormone (SYSMEHFRWGKPVGKKRRPVKVYPNGAEDESAEAFPLEF; Corticotropin; UniProt P01189 138-176, looked up) [ACTH, hormone secreted by the anterior pituitary gland, used to stimulate the cells]” the production/secretion of cortisol (1 uM (FIG. 15B)) was “increasing with administration of increasing ACTH dosage” and the production/secretion of aldosterone (1 uM (FIG. 15C)) was “increasing with administration of increasing ACTH dosage”.
